In patent US20250171432A1, “COMPOUNDS AND METHODS OF USE” (Tango Therapeutics, Inc., priority 2022, published 2025):

Tests used:
Assay type in all cases: cell-based
[1] = test system: SDMA (PRMT5 activity) in HAP1 MTAP-intact cell line; assay: SDMA in-cell western assay, HAP1 MTAP-intact; settings: SDMA in-cell western, HAP1 MTAP-intact cells, 24 hours compound incubation
Procedure: (§1) The SAM-cooperative PRMT5 inhibitor, GSK3326595, was sourced from SelleckChem and maintained as a 10 mM DMSO stock. All test compounds are maintained as 10 mM DMSO stocks
(§2) On Day 0, MTAP-intact or MTAP-deleted cells are seeded in a 384-well plate, and incubated in a humidified, 5% CO2 tissue culture incubator for 16-24 hours. On Day 1, the test compounds are dispensed to wells at defined concentrations using a Tecan D300e digital dispenser (n=4), and the volume of DMSO is normalized to highest class volume. Each plate includes wells dosed with defined concentrations of GSK33226595 as a plate control. The compounds are incubated with cells for 24 hours in a humidified, 5% CO2 tissue culture incubator.
(§3) On Day 2, the compound-treated cells are fixed with a final concentration of 4% formaldehyde. The cells are then washed/permeabilized with 1×PBS+0.1% Triton X-100, and then blocked with 5% goat serum/1×TBS.
(§4) The cells are washed with 1×PBS+0.1% Triton X-100, and then washed again with ddH20. The plates are then imaged using a NIR fluorescent imager (LiCor Odyssey).
(§5) For data analysis, the SDMA signal is normalized to the DRAQ5 signal. Assay background is determined by the signal from wells treated with 1 μM GSK3326595, and subtracted from every well. The data are plotted as % of the DMSO control wells for the MTAP-intact and the MTAP-deleted cell lines independently, and fitted to the 4-parameter logistic (4-PL) Hill equation with maximal effect constrained to 0. The fit was performed using GraphPad Prism or the default IC50 fitting procedure in Dotmatics Studies 5.4 as part of a customized data analysis protocol.

[2] = test system: SDMA (PRMT5 activity) in HAP1 MTAP-deleted cell line; assay: SDMA in-cell western assay, HAP1 MTAP-deleted; settings: for IC50 / IC90: SDMA in-cell western, HAP1 MTAP-deleted cells, 24 hours compound incubation; for Hap1 MTAP intact/deleted ratio: ratio of SDMA IC50 in HAP1 MTAP-intact to HAP1 MTAP-deleted cell line
Procedure: as §1, §2, §3, §4, §5

[3] = test system: HAP1 MTAP-deleted cell line; assay: Viability assay (CellTiter-Glo), HAP1 MTAP-deleted; settings: HAP1 MTAP-deleted cells, 7 days
Procedure: All test compounds are maintained as 10 mM DMSO stocks.
On Day 0, MTAP-intact and MTAP-deleted cells are seeded in a 96-well plate, and incubated in a humidified, 5 or 10% CO2 tissue culture incubator for 16-24 hours. On Day 1, the test compounds are dispensed to wells at defined concentrations using a Tecan D300e digital dispenser (n=3), and the volume of DMSO is normalized to highest class volume (0.2%). The compound-treated plates are incubated for 7 days in a humidified, 5 or 10% CO2 tissue culture incubator.
On Day 7, the plates are removed from the tissue culture incubator and allowed to equilibrate to room temperature. Then either a ½% volume CellTiter-Glo Luminescent Cell Viability Assay reagent (Promega G7572) is added to each well, or the media is removed from every well and a 1:3 dilution of CellTiter-Glo 2.0 Cell Viability Assay reagent (Promega G9241) in 1×PBS is added. Ten minutes after addition, the luminescent signal is detected by an Envision plate reader. The data are plotted as % of the DMSO control wells for the MTAP-intact and the MTAP-deleted cell lines independently, and fitted to the 4-parameter logistic (4-PL) Hill equation with maximal effect constrained to 0. The fit was performed using GraphPad Prism or the default IC50 fitting procedure in Dotmatics Studies 5.4 as part of a customized data analysis protocol.

Row | SMILES | IC50 ([1]; Homo sapiens, HAP1, 24 h) | IC50 ([2]; Homo sapiens) | IC90 ([2]; Homo sapiens) | Hap1 MTAP intact/deleted ratio [2] | IC50 ([3]; Homo sapiens, 168 h) | IC50 [1] | IC50 [2] | IC90 [2] | IC50 [3]
1 | CCc1cc(NC(=O)C(=O)N2C[C@@H](C)CC[C@@H]2c2ccc3sc(C4CN(C)CC(=O)N4C)nc3c2)cnc1N (mixture of isomers) [Compound 125, N-(6-amino-5-ethylpyridin-3-yl)-2-((2R,5S)-2-(2-(1,4-dimethyl-6-oxopiperazin-2-yl)benzo[d]thiazol-5-yl)-5-methylpiperidin-1-yl)-2-oxoacetamide] | > 0.05 µM | 0.005 to 0.05 µM | 0.075 to 0.125 µM | B (“B” indicates an IC50 ratio greater than or equal to 15 fold but lower than 30 fold) | < 0.1 µM | – | – | – | –
2 | CCc1cc(NC(=O)C(=O)N2C[C@@H](C)CC[C@@H]2c2ccc3sc(C4CN(C)CCN4C)nc3c2)cnc1N (mixture of isomers) [Compound 70, N-(6-amino-5-ethylpyridin-3-yl)-2-((2R,5S)-2-(2-(1,4-dimethylpiperazin-2-yl)benzo[d]thiazol-5-yl)-5-methylpiperidin-1-yl)-2-oxoacetamide] | > 0.05 µM | 0.005 to 0.05 µM | < 0.075 µM | B (“B” indicates an IC50 ratio greater than or equal to 15 fold but lower than 30 fold) | < 0.1 µM | – | – | – | –
3 | CCc1cc(NC(=O)C(=O)N2C[C@@H](C)CC[C@@H]2c2ccc3sc([C@H]4CN(C)CC(C)(C)C4)nc3c2)cnc1N (single isomer, unassigned) [Compound 45] | 0.005 to 0.05 µM | < 0.005 µM | < 0.075 µM | B (“B” indicates an IC50 ratio greater than or equal to 15 fold but lower than 30 fold) | < 0.1 µM | – | – | – | –
4 | CCc1cc(NC(=O)C(=O)N2C[C@@H](C)CC[C@@H]2c2ccc3cn([C@H]4CCCN(C)C4)nc3c2)cnc1N [Compound 104] | > 0.05 µM | < 0.005 µM | < 0.075 µM | B (“B” indicates an IC50 ratio greater than or equal to 15 fold but lower than 30 fold) | < 0.1 µM | – | – | – | –
5 | COc1ncc(NC(=O)C(=O)N2C[C@@H](C)CC[C@@H]2c2ccc3sc(C4CN(C)C(C)(C)C4)nc3c2)cc1C(N)=O (mixture of isomers) [Compound 77, 2-methoxy-5-(2-((2R,5S)-5-methyl-2-(2-(1,5,5-trimethylpyrrolidin-3-yl)benzo[d]thiazol-5-yl)piperidin-1-yl)-2-oxoacetamido)nicotinamide] | > 0.05 µM | < 0.005 µM | < 0.075 µM | A (“A” indicates an IC50 ratio greater than or equal to 30 fold) | < 0.1 µM | – | – | – | –
6 | COc1ncc(NC(=O)C(=O)N2C[C@@H](C)CC[C@@H]2c2ccc3sc([C@H](C)CN(C)C)nc3c2)cc1C(N)=O [Compound 11, 2-methoxy-5-[[2-oxo-2-[(2R,5S)-5-methyl-2-[2-[(^1S)-2-(dimethylamino)-1-methyl-ethyl]-1,3-benzothiazol-5-yl]-1-piperidyl]acetyl]amino]pyridine-3-carboxamide] | > 0.05 µM | < 0.005 µM | < 0.075 µM | A (“A” indicates an IC50 ratio greater than or equal to 30 fold) | < 0.1 µM | – | – | – | –
7 | COc1ncc(NC(=O)C(=O)N2C[C@@H](C)CC[C@@H]2c2ccc3cn(C4CCOCC4)nc3c2)cc1C(N)=O [Compound 107, 2-methoxy-5-[[2-oxo-2-[(2R,5S)-5-methyl-2-(2-tetrahydropyran-4-ylindazol-6-yl)-1-piperidyl]acetyl]amino]pyridine-3-carboxamide] | > 0.05 µM | 0.005 to 0.05 µM | 0.075 to 0.125 µM | A (“A” indicates an IC50 ratio greater than or equal to 30 fold) | 0.1 to 1 µM | – | – | – | –
8 | CCc1cc(NC(=O)C(=O)N2C[C@@H](C)CC[C@@H]2c2ccc3cn(C4CCN(C)C(C)(C)C4)nc3c2)cnc1N (single isomer, unassigned) [Compound 115] | – | – | – | – | – | 0.005 to 0.05 µM | < 0.005 µM | < 0.075 µM | < 0.1 µM
9 | CCc1cc(NC(=O)C(=O)N2C[C@@H](C)CC[C@@H]2c2ccc3sc(CC(C)(C)N(C)C)nc3c2)cnc1N [Compound 89, N-(6-amino-5-ethylpyridin-3-yl)-2-((2R,5S)-2-(2-(2-(dimethylamino)-2-methylpropyl)benzo[d]thiazol-5-yl)-5-methylpiperidin-1-yl)-2-oxoacetamide] | > 0.05 µM | < 0.005 µM | < 0.075 µM | A (“A” indicates an IC50 ratio greater than or equal to 30 fold) | < 0.1 µM | – | – | – | –
10 | COc1ncc(NC(=O)C(=O)N2C[C@@H](C)CC[C@@H]2c2ccc3sc([C@H](C)CN4CCCC4)nc3c2)cc1C(N)=O [Compound 15, 2-methoxy-5-[[2-oxo-2-[(2R,5S)-5-methyl-2-[2-[(1R)-1-methyl-2-pyrrolidin-1-yl-ethyl]-1,3-benzothiazol-5-yl]-1-piperidyl]acetyl]amino]pyridine-3-carboxamide] | > 0.05 µM | < 0.005 µM | < 0.075 µM | B (“B” indicates an IC50 ratio greater than or equal to 15 fold but lower than 30 fold) | < 0.1 µM | – | – | – | –
11 | CCc1cc(NC(=O)C(=O)N2C[C@@H](C)CC[C@@H]2c2ccc3sc(CC4(C)CCN(C)CC4)nc3c2)cnc1N [Compound 6, N-(6-amino-5-ethylpyridin-3-yl)-2-((2R,5S)-2-(2-((1,4-dimethylpiperidin-4-yl)methyl)benzo[d]thiazol-5-yl)-5-methylpiperidin-1-yl)-2-oxoacetamide] | 0.005 to 0.05 µM | < 0.005 µM | < 0.075 µM | B (“B” indicates an IC50 ratio greater than or equal to 15 fold but lower than 30 fold) | < 0.1 µM | – | – | – | –
12 | COc1ncc(NC(=O)C(=O)N2C[C@@H](C)CC[C@@H]2c2ccc3sc(CC4(C)CCN(C)CC4)nc3c2)cc1C(N)=O [Compound 22, 5-(2-((2R,5S)-2-(2-((1,4-dimethylpiperidin-4-yl)methyl)benzo[d]thiazol-5-yl)-5-methylpiperidin-1-yl)-2-oxoacetamido)-2-methoxynicotinamide] | > 0.05 µM | < 0.005 µM | < 0.075 µM | B (“B” indicates an IC50 ratio greater than or equal to 15 fold but lower than 30 fold) | < 0.1 µM | – | – | – | –
13 | CCc1cc(NC(=O)C(=O)N2C[C@@H](C)CC[C@@H]2c2cccc(OC3CCN(C)CC3)c2)cnc1N [Compound 58, N-(6-amino-5-ethylpyridin-3-yl)-2-((2R,5S)-5-methyl-2-(3-((1-methylpiperidin-4-yl)oxy)phenyl)piperidin-1-yl)-2-oxoacetamide] | > 0.05 µM | < 0.005 µM | < 0.075 µM | A (“A” indicates an IC50 ratio greater than or equal to 30 fold) | < 0.1 µM | – | – | – | –
14 | COc1ncc(NC(=O)C(=O)N2C[C@@H](C)CC[C@@H]2c2ccc3sc(C4CCN(C)C4(C)C)nc3c2)cc1C(N)=O (mixture of isomers) [Compound 87, 2-methoxy-5-(2-((2R,5S)-5-methyl-2-(2-(rac-(S)-1,2,2-trimethylpyrrolidin-3-yl)benzo[d]thiazol-5-yl)piperidin-1-yl)-2-oxoacetamido)nicotinamide] | > 0.05 µM | < 0.005 µM | < 0.075 µM | A (“A” indicates an IC50 ratio greater than or equal to 30 fold) | < 0.1 µM | – | – | – | –
